Data: a compilation of properties of binary mixtures (doi:10.1021/je3004904)

Assay: xn = mol fraction of the nth substance listed
Conditions: 101 kPa

Cn1cc[nH+]c1.[Cl-] + Cl[Al](Cl)Cl
Conditions	electrical conductivity, x2 = 0.643 [S/m]	electrical conductivity, x2 = 0.667 [S/m]	viscosity, x2 = 0.643 [mPa·s]	viscosity, x2 = 0.667 [mPa·s]
293.15 K	–	–	78.3	50.8
298.15 K	0.456	0.601	59.41	40.23
303.15 K	0.553	–	46.88	–
308.15 K	0.661	0.827	38.17	27.36
313.15 K	–	0.961	–	23.28
318.15 K	0.909	1.1	27.17	20.13
323.15 K	1.05	1.25	23.58	17.66
328.15 K	1.2	1.4	20.75	15.67
333.15 K	1.36	1.56	18.5	14.06
338.15 K	1.53	1.74	16.67	12.72
343.15 K	1.7	1.92	15.15	11.61

[Cl][Al]([Cl])[Cl] + CCCC[n+]1ccn(C)c1.[Cl-]
Conditions	electrical conductivity [S/m]	viscosity [mPa·s]
293.15 K, x1 = 0.5	–	41.63
293.15 K, x1 = 0.5238	–	38.28
293.15 K, x1 = 0.545	–	35.03
293.15 K, x1 = 0.5454	–	34.99
293.15 K, x1 = 0.5653	–	32.26
293.15 K, x1 = 0.583	–	30.37
293.15 K, x1 = 0.5834	–	30.34
293.15 K, x1 = 0.6001	–	28.34
293.15 K, x1 = 0.615	–	26.91
293.15 K, x1 = 0.6154	–	26.89
293.15 K, x1 = 0.6296	–	25.31
293.15 K, x1 = 0.6429	–	24.35
293.15 K, x1 = 0.6551	–	23.44
293.15 K, x1 = 0.6667	–	22.54
298.15 K, x1 = 0.583	0.947	25.24
298.15 K, x1 = 0.615	0.931	22.59
298.15 K, x1 = 0.643	0.919	20.62
298.15 K, x1 = 0.667	0.912	19.42
303.15 K, x1 = 0.5	–	28.33
303.15 K, x1 = 0.545	1.14	24.35
303.15 K, x1 = 0.5454	–	24.32
303.15 K, x1 = 0.583	1.1	21.38
303.15 K, x1 = 0.5834	–	21.36
303.15 K, x1 = 0.6001	–	20.2
303.15 K, x1 = 0.615	1.07	19.34
303.15 K, x1 = 0.6154	–	19.33
303.15 K, x1 = 0.6296	–	18.29
303.15 K, x1 = 0.6551	–	17.1
303.15 K, x1 = 0.6667	–	16.73
308.15 K, x1 = 0.545	1.32	20.84
308.15 K, x1 = 0.583	1.26	18.31
308.15 K, x1 = 0.643	1.21	15.39
308.15 K, x1 = 0.667	1.2	14.59
313.15 K, x1 = 0.5	–	20.76
313.15 K, x1 = 0.5238	–	19.48
313.15 K, x1 = 0.545	1.51	18.1
313.15 K, x1 = 0.5653	–	16.92
313.15 K, x1 = 0.583	1.44	16.03
313.15 K, x1 = 0.5834	–	16.01
313.15 K, x1 = 0.6001	–	15.28
313.15 K, x1 = 0.615	1.39	14.61
313.15 K, x1 = 0.6296	–	13.96
313.15 K, x1 = 0.6429	–	13.53
313.15 K, x1 = 0.643	1.36	13.54
313.15 K, x1 = 0.6551	–	13.12
313.15 K, x1 = 0.6667	–	12.87
313.15 K, x1 = 0.667	1.34	12.87
318.15 K, x1 = 0.545	1.71	15.92
318.15 K, x1 = 0.583	1.63	14.15
318.15 K, x1 = 0.615	1.57	12.78
318.15 K, x1 = 0.643	1.52	12.04
323.15 K, x1 = 0.5238	–	15.16
323.15 K, x1 = 0.545	1.93	14.15
323.15 K, x1 = 0.5653	–	13.29
323.15 K, x1 = 0.583	1.83	12.61
323.15 K, x1 = 0.5834	–	12.6
323.15 K, x1 = 0.6001	–	12.09
323.15 K, x1 = 0.615	1.76	11.56
323.15 K, x1 = 0.6154	–	11.55
323.15 K, x1 = 0.6429	–	10.78
323.15 K, x1 = 0.643	1.69	10.8
323.15 K, x1 = 0.6551	–	10.48
323.15 K, x1 = 0.6667	–	10.17
323.15 K, x1 = 0.667	1.66	10.17
328.15 K, x1 = 0.545	2.15	12.7
328.15 K, x1 = 0.583	2.04	11.34
328.15 K, x1 = 0.615	1.95	10.45
328.15 K, x1 = 0.667	1.83	9.05
333.15 K, x1 = 0.5	–	12.95
333.15 K, x1 = 0.545	2.39	11.49
333.15 K, x1 = 0.5454	–	11.47
333.15 K, x1 = 0.5653	–	10.83
333.15 K, x1 = 0.583	2.26	10.29
333.15 K, x1 = 0.5834	–	10.28
333.15 K, x1 = 0.6154	–	9.49
333.15 K, x1 = 0.6429	–	8.88
333.15 K, x1 = 0.643	2.07	8.88
333.15 K, x1 = 0.6551	–	8.63
333.15 K, x1 = 0.6667	–	8.23
333.15 K, x1 = 0.667	2.01	8.23
338.15 K, x1 = 0.545	2.63	10.48
338.15 K, x1 = 0.583	2.49	9.4
338.15 K, x1 = 0.615	2.38	8.69
338.15 K, x1 = 0.643	2.28	8.14
338.15 K, x1 = 0.667	2.2	7.43
343.15 K, x1 = 0.5	–	10.78
343.15 K, x1 = 0.5238	–	10.26
343.15 K, x1 = 0.545	2.88	9.63
343.15 K, x1 = 0.5653	–	9.09
343.15 K, x1 = 0.583	2.73	8.64
343.15 K, x1 = 0.6001	–	8.34
343.15 K, x1 = 0.615	2.6	8.01
343.15 K, x1 = 0.6154	–	8.01
343.15 K, x1 = 0.6296	–	7.73
343.15 K, x1 = 0.643	2.5	7.5
343.15 K, x1 = 0.6551	–	7.209
343.15 K, x1 = 0.6667	–	6.824
343.15 K, x1 = 0.667	2.4	6.824
